Test results: patent publication US20120029187A1, “HALOALKYLSULFONANILIDE DERIVATIVE” (Nissan Chemical Industries, Ltd., priority 2009, published 2012)

Assays:
Assay type in all cases: in vivo
common ragweed [1] = experiment: Test Example 4: herbicidal effect in foliage treatment; settings: dose 6.3 g/a, three weeks after application
In short: (§1)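 Doses are given in grams per are of applied compound, sprayed as water-diluted emulsifiable concentrate onto foliage of 14-day-old plants grown at 25 to 30° C. Herbicidal activity was assessed visually on a rating scale after three weeks.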

common chickweed [2] = experiment: as above; settings: dose 6.3 g/a, three weeks after application
In short: as §1

Italian ryegrass [3] = experiment: as above; settings: dose 6.3 g/a, three weeks after application
In short: as §1

barnyardgrass [4] = experiment: as above; settings: dose 6.3 g/a, three weeks after application
In short: as §1

redroot pigweed [5] = experiment: as above; settings: dose 6.3 g/a, three weeks after application
In short: as §1

beadstraw = experiment: as above; settings: dose 6.3 g/a, three weeks after application
In short: as §1

water foxtail [6] = experiment: as above; settings: dose 6.3 g/a, three weeks after application
In short: as §1

velvetleaf [7] = experiment: as above; settings: dose 6.3 g/a, three weeks after application
In short: as §1

large crabgrass [8] = experiment: as above; settings: dose 6.3 g/a, three weeks after application
In short: as §1

giant foxtail [9] = experiment: as above; settings: dose 6.3 g/a, three weeks after application
In short: as §1

wild oat [10] = experiment: as above; settings: dose 6.3 g/a, three weeks after application
In short: as §1

common lambsquater [11] = experiment: as above; settings: dose 6.3 g/a, three weeks after application
In short: as §1

posumbu knotweed [12] = experiment: as above; settings: dose 6.3 g/a, three weeks after application
In short: as §1

common ragweed [13] = experiment: Test Example 3: herbicidal effects in soil treatment; settings: dose 6.3 g/a
In short: (§2)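 Seeds were sown in sterilized diluvial soil and covered with about 1.5 cm of soil. Compounds, formulated as emulsifiable concentrates and diluted with water, were sprayed evenly over the soil surface at set doses in g/a. Herbicidal effect was scored on a rating scale three weeks later.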

common chickweed [14] = experiment: as above; settings: dose 6.3 g/a
In short: as §2

Italian ryegrass [15] = experiment: as above; settings: dose 6.3 g/a
In short: as §2

barnyardgrass [16] = experiment: as above; settings: dose 6.3 g/a
In short: as §2

redroot pigweed [17] = experiment: as above; settings: dose 6.3 g/a
In short: as §2

water foxtail [18] = experiment: as above; settings: dose 6.3 g/a
In short: as §2

velvetleaf [19] = experiment: as above; settings: dose 6.3 g/a
In short: as §2

large crabgrass [20] = experiment: as above; settings: dose 6.3 g/a
In short: as §2

giant foxtail [21] = experiment: as above; settings: dose 6.3 g/a
In short: as §2

wild oat [22] = experiment: as above; settings: dose 6.3 g/a
In short: as §2

common lambsquater [23] = experiment: as above; settings: dose 6.3 g/a
In short: as §2

posumbu knotweed [24] = experiment: as above; settings: dose 6.3 g/a
In short: as §2

barnyardgrass [25] = experiment: Test Example 2: herbicidal effects during the vegetation period under submerged conditions; settings: treatment during the vegetation period under submerged conditions; dose 2.52 g/a
In short: (§3)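 Barnyardgrass, bulrush and ducksalad were co-sown in alluvial soil flooded to 4 cm and grown in a greenhouse at 25 to 30° C. At the 1- or 2-leaf stage, water-diluted emulsifiable concentrates went onto the water surface at set doses (g/a). Herbicidal effect was scored three weeks later on a graded scale.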

ducksalad [26] = experiment: as above; settings: treatment during the vegetation period under submerged conditions; dose 2.52 g/a
In short: as §3

bulrush [27] = experiment: as above; settings: treatment during the vegetation period under submerged conditions; dose 2.52 g/a
In short: as §3

barnyardgrass [28] = experiment: Test Example 1: herbicidal effects in preemergence treatment under submerged conditions; settings: dose 2.52 g/a
In short: (§4)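 Scoring 0 (<5% mortality) to 5 (≥90%) was done three weeks after preemergence application to the water surface of submerged (4 cm) alluvial soil, doses given as g per are. Weeds were seeded and 2.5-leaf rice transplanted on the treatment day; greenhouse at 25–30 °C.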

ducksalad [29] = experiment: as above; settings: dose 2.52 g/a
In short: as §4

bulrush [30] = experiment: as above; settings: dose 2.52 g/a
In short: as §4

Row | Structure (SMILES) | J: common ragweed, herbicidal effect (common ragweed [1]) | N: common chickweed, herbicidal effect (common chickweed [2]) | H: Italian ryegrass, herbicidal effect (Italian ryegrass [3]) | A: barnyardgrass, herbicidal effect (barnyardgrass [4]) | K: redroot pigweed, herbicidal effect (redroot pigweed [5]) | O: beadstraw, herbicidal effect (beadstraw) | G: water foxtail, herbicidal effect (water foxtail [6]) | I: velvetleaf, herbicidal effect (velvetleaf [7]) | D: large crabgrass, herbicidal effect (large crabgrass [8]) | E: giant foxtail, herbicidal effect (giant foxtail [9]) | F: wild oat, herbicidal effect (wild oat [10]) | L: common lambsquater, herbicidal effect (common lambsquater [11]) | M: posumbu knotweed, herbicidal effect (posumbu knotweed [12]) | J: common ragweed, herbicidal effect (evaluation scale 0-5) (common ragweed [13]) | N: common chickweed, herbicidal effect (evaluation scale 0-5) (common chickweed [14]) | H: Italian ryegrass, herbicidal effect (evaluation scale 0-5) (Italian ryegrass [15]) | A: barnyardgrass, herbicidal effect (evaluation scale 0-5) (barnyardgrass [16]) | K: redroot pigweed, herbicidal effect (evaluation scale 0-5) (redroot pigweed [17]) | G: water foxtail, herbicidal effect (evaluation scale 0-5) (water foxtail [18]) | I: velvetleaf, herbicidal effect (evaluation scale 0-5) (velvetleaf [19]) | other results
1 | O=C1COCCN1Cc1ccccc1NS(=O)(=O)C(F)(F)F [Compound I-1, 4-(2-trifluoromethanesulfonylaminobenzyl)-1,4-oxazinan-3-one] | 4 (mortality of at least 70% and less than 90%) | 4 (mortality of at least 70% and less than 90%) | 5 (mortality of 90% or above (nearly complete death)) | 5 (mortality of 90% or above (nearly complete death)) | 3 (mortality of at least 40% and less than 70%) | 5 (mortality of 90% or above (nearly complete death)) | 5 (mortality of 90% or above (nearly complete death)) | 5 (mortality of 90% or above (nearly complete death)) | 5 (mortality of 90% or above (nearly complete death)) | 5 (mortality of 90% or above (nearly complete death)) | 3 (mortality of at least 40% and less than 70%) | 5 (mortality of 90% or above (nearly complete death)) | 5 (mortality of 90% or above (nearly complete death)) | 4 (mortality of at least 70% and less than 90%) | 5 (mortality of 90% or above (nearly complete death)) | 5 (mortality of 90% or above (nearly complete death)) | 5 (mortality of 90% or above (nearly complete death)) | 5 (mortality of 90% or above (nearly complete death)) | 5 (mortality of 90% or above (nearly complete death)) | 5 (mortality of 90% or above (nearly complete death)) | D: large crabgrass, herbicidal effect (evaluation scale 0-5) (large crabgrass [20]): 5 (mortality of 90% or above (nearly complete death)); E: giant foxtail, herbicidal effect (evaluation scale 0-5) (giant foxtail [21]): 5 (mortality of 90% or above (nearly complete death)); F: wild oat, herbicidal effect (evaluation scale 0-5) (wild oat [22]): 4 (mortality of at least 70% and less than 90%); L: common lambsquater, herbicidal effect (evaluation scale 0-5) (common lambsquater [23]): 5 (mortality of 90% or above (nearly complete death)); M: posumbu knotweed, herbicidal effect (evaluation scale 0-5) (posumbu knotweed [24]): 5 (mortality of 90% or above (nearly complete death)); A: barnyardgrass, herbicidal effect (evaluation scale 0-5) (barnyardgrass [25]): 5 (mortality of 90% or above (nearly complete death)); C: ducksalad, herbicidal effect (evaluation scale 0-5) (ducksalad [26]): 5 (mortality of 90% or above (nearly complete death)); B: bulrush, herbicidal effect (evaluation scale 0-5) (bulrush [27]): 5 (mortality of 90% or above (nearly complete death)); A: barnyardgrass, herbicidal effect (evaluation scale 0-5) (barnyardgrass [28]): 5 (mortality of 90% or above (nearly complete death)); C: ducksalad, herbicidal effect (evaluation scale 0-5) (ducksalad [29]): 5 (mortality of 90% or above (nearly complete death)); B: bulrush, herbicidal effect (evaluation scale 0-5) (bulrush [30]): 5 (mortality of 90% or above (nearly complete death))
2 | O=C1CSCCN1Cc1ccccc1NS(=O)(=O)C(F)(F)F [Compound I-17, 4-(2-trifluoromethanesulfonylaminobenzyl)-1,4-thiazinan-3-one] | 4 (mortality of at least 70% and less than 90%) | 4 (mortality of at least 70% and less than 90%) | 3 (mortality of at least 40% and less than 70%) | 4 (mortality of at least 70% and less than 90%) | 4 (mortality of at least 70% and less than 90%) | 5 (mortality of 90% or above (nearly complete death)) | 5 (mortality of 90% or above (nearly complete death)) | 4 (mortality of at least 70% and less than 90%) | 5 (mortality of 90% or above (nearly complete death)) | 3 (mortality of at least 40% and less than 70%) | 1 (mortality of at least 5% and less than 20%) | 5 (mortality of 90% or above (nearly complete death)) | 3 (mortality of at least 40% and less than 70%) | 4 (mortality of at least 70% and less than 90%) | 5 (mortality of 90% or above (nearly complete death)) | 3 (mortality of at least 40% and less than 70%) | 5 (mortality of 90% or above (nearly complete death)) | 3 (mortality of at least 40% and less than 70%) | 5 (mortality of 90% or above (nearly complete death)) | 1 (mortality of at least 5% and less than 20%) | D: large crabgrass, herbicidal effect (evaluation scale 0-5) (large crabgrass [20]): 5 (mortality of 90% or above (nearly complete death)); E: giant foxtail, herbicidal effect (evaluation scale 0-5) (giant foxtail [21]): 3 (mortality of at least 40% and less than 70%); F: wild oat, herbicidal effect (evaluation scale 0-5) (wild oat [22]): 0 (mortality of less than 5% (almost ineffective)); L: common lambsquater, herbicidal effect (evaluation scale 0-5) (common lambsquater [23]): 5 (mortality of 90% or above (nearly complete death)); M: posumbu knotweed, herbicidal effect (evaluation scale 0-5) (posumbu knotweed [24]): 2 (mortality of at least 20% and less than 40%); C: ducksalad, herbicidal effect (evaluation scale 0-5) (ducksalad [26]): 4 (mortality of at least 70% and less than 90%); B: bulrush, herbicidal effect (evaluation scale 0-5) (bulrush [27]): 5 (mortality of 90% or above (nearly complete death)); A: barnyardgrass, herbicidal effect (evaluation scale 0-5) (barnyardgrass [28]): 4 (mortality of at least 70% and less than 90%); C: ducksalad, herbicidal effect (evaluation scale 0-5) (ducksalad [29]): 5 (mortality of 90% or above (nearly complete death)); B: bulrush, herbicidal effect (evaluation scale 0-5) (bulrush [30]): 5 (mortality of 90% or above (nearly complete death))
